Measured values reported in patent US12343349B2, “Imipramine for use as an inhibitor of Fascin1 overexpression” (FUNDACION UNIVERSITARIA SAN ANTONIO, priority 2018, dated 2025).
Read-outs that look alike come from different tables or passages of the source.

Tests used:
HCT116 cell line = experiment: Immunofluorescence of fascin1 localization and lamellipodia formation; format: cell-based, human; settings: for filopodia lamellipodium formation: 24 h, migrastatin 100 μM, imipramine 20 μM, PD98059 50 μM, EGF 10 ng/ml; for Lamellipodia protrusion number: data not shown
Description: In order to assess the effect of imipramine on fascin1 localization and lamelipodia formation an immunofluorescence assay was performed. Round coverslips (Thermo Fisher, Waltham, MA USA) were seeded with HCT116 cell line in the presence of 10% FBS. After cells reached 100% confluence, serum supplemented medium was removed and replaced with fresh serum free medium for 24 h. Artificial wounding was performed by transversally dragging a sterilized razor blade on the central area of the coverslips. Coverslips were then placed in 6-well plate with 2 mL serum free DMEM and 100 μM migrastatin, 20 μM imipramine, Epidermal Growth Factor (EGF) 10 ng/ml and MEK inhibitor PD98059 50 μM (MEKi) (both from Sigma-Aldrich, St Louis, MO, USA) for 24 h. Cells were then fixed with Bouin (for fascin1 protein) or 4% formaldehyde (for actin protein) and subsequently permeabilized in a 0.3% Triton X-100/PBS solution, and then exposed to blocking buffer for 30 min. Samples were incubated for 1 h with anti-fascin1 antibody (1/250) (55K-2 clone; Santa Cruz Biotechnology, Heidelberg, Germany) or anti-β actin antibody (1/1000) (Sigma-Aldrich, St Louis, MO, USA) in a wet chamber.
Appropriate fluorescent-labelled primary antibodies were incubated later with Alexa fluor 488-conjugated anti-mouse IgG (from donkey) (1/400) or Alexa fluor 594-labelled phalloidin, respectively (1/1000) (Molecular Probes, Thermo Fisher Scientific, Waltham, MA USA) and Hoechst 33258 (Fluka, Biochemika, Sigma-Aldrich, St Louis, MO, USA) for 30 min at room temperature and darkness. Samples were examined and representative images were taken with a confocal microscope (LSM 510 META from ZEISS, Jena, Germany). The effect of imipramine on the fascin1 localization and the reorganization of the actin cytoskeleton, which includes the protrusion of the lamellipodium at the cell front filopodia formation and fascin1 localization, was assessed by immunofluorescence.

fascin1 [1] = target: T1, fascin1 (Homo sapiens, UniProt Q16658); experiment: Differential Scanning Fluorimetry (Thermofluor) thermal shift assay; format: binding; settings: for ΔTm at 1000 µM: vs free fascin1
T1 construct: purchased Hypermol, Bielefeld, Germany 8411-02
Description: Differential Scanning Fluorimetry (Thermofluor) assays were performed using a Biorad C1000 Touch Thermal Cycler CFX96 RT-PCR system in a 96-well format.
Imipramine was prepared at 10 mM in 100% DMSO and added to each well to a final concentration of 1 mM and 10% DMSO. Three replicates with six internal controls, containing only free protein in 10% DMSO, were included in the 96-well plates. The PCR plates were covered and subsequently shaken, centrifuged, incubated for 2 min at 20° C. inside the RT-PCR machine and heated from 20 to 100° C. at a 1° C./min scan-rate. Fascin1 thermal denaturation profiles were obtained recording the fluorescence intensity for the FAM, HEX and T-Red predefined filters. The derivative of the fluorescence curve was used to determine the Tm. Changes in Tm associated to ligand binding were estimated taking the average Tm value derived from the free protein internal controls.
[formula] Ff and Fb are the fluorescence signal (area or CM) of free and bound fascin1 and PT and LT are the total protein and ligand concentration, respectively, at each addition point. Tm values were measured as the minimum of the first derivative of the thermal unfolding profile.

fascin1 [2] = target: T1, fascin1; experiment: Fluorescence titration; format: binding; settings: 25° C., 10% DMSO, 100 mM NaCl, 20 mM Hepes, pH 7.4; read-out: dissociation constant Kd
Description: Fascin1 was extensively dialized against the appropriate buffer prior to each titration experiment. Fascin1 concentration was determined by measuring absorbance at 280 nm using an extinction coefficient of 67840 cm-1-M-1. Fluorescence titration experiments were performed in a Cary Eclipse spectrofluorimeter (Varian Inc.). A 15 μM (14.7 μM) fascin1 solution was titrated with each compound by adding increasing volumes of concentrated solutions. Emission spectra were recorded between 307 and 500 nm at 25° C. in 10% DMSO, 100 mM NaCl, 20 mM Hepes, pH 7.4, with the excitation wavelength fixed at 280 nm. Binding isotherms were generated using either the changes in spectral area or in spectral centre of mass (CM), depending whether the change was only in fluorescence intensity or was also in the maximum emission wavelength.
The resulting curves were fitted using ORIGIN 7.0 (Microcal Inc.) and a one-site equilibrium binding model, according to the following equation:
[formula] Ff and Fb are the fluorescence signal (area or CM) of free and bound fascin1 and PT and LT are the total protein and ligand concentration, respectively, at each addition point. Tm values were measured as the minimum of the first derivative of the thermal unfolding profile. […]

[3] = test system: DLD1 colorectal cancer cell line; experiment: Cell migration (wound healing) assay, DLD1; format: cell-based, human; settings: for Migration (%): DLD1, slope 4-7 h relative to control, imipramine 20 μM, migrastatin 100 μM
Description: (§1) Except for SW-480, imipramine effect was more pronounced than migrastatin, especially for DLD-1. Cell migration was studied with the three cell lines by performing the wound healing assay in the presence of 5% FBS. Cancer colorectal cells (50,000 cells) were plated in low 35-mm-dishes with culture inserts (Ibidi, Martinsried, Germany). After appropriate cell attachment and monolayer formation (around for 24 h), inserts were then removed with sterile forceps to create a wound field of approximately 500 μm, according to the manufacturer protocol. Detached cells were gently removed with phosphate buffered saline (PBS, Dubelco) before the addition of drugs. Confluent cells were incubated in one of the following treatments: 100 μM migrastatin (AnalytiCon Discovery, cat. No. NP-006108), and 20 μM imipramine ((purchased via Molport, Letonia) and, control dishes that were incubated in the presence of 0.1% DMSO. Cells were then allowed to migrate in a cell culture incubator for 24 h. At 0, 3, 5 and 7 h (linear growth phase), 10 fields of the injury area were photographed with an inverted and phase contrast microscopy at ×10 magnification incorporating a CCD camera. For each timepoint, the area uncovered by cells was determined by an image processing free software analysis with Image J software program.
(§2) The migration speed of the wound closure is given as the percentage of the recovered area at each time point, relative to the initially covered area (0 h). The velocity of wound closure (%/h) was calculated according to the formula: Slope (%/h)=((% covered area t_x)−(% covered area t_0))/((tx−t_0)). Slopes are then expressed as percentages relative to control conditions.

[4] = test system: SW-480 colorectal cancer cell line; experiment: Cell migration (wound healing) assay, SW-480; format: cell-based, human; settings: for Migration (%): slope 4-7 h relative to control, imipramine 20 μM, migrastatin 100 μM
Description: as §1, §2

[5] = test system: HCT-116 colorectal cancer cell line; experiment: Cell migration (wound healing) assay, HCT-116; format: cell-based, human; settings: for Migration (%): slope 4-7 h relative to control, imipramine 20 μM, migrastatin 100 μM
Description: as §1, §2

HCT116 cells = experiment: Transwell invasion assay on Matrigel; format: cell-based, human; settings: 30 hours; migrastatin 100 μM, imipramine 20 μM
Description: Tumor cell invasion not only involved the acquisition of migration properties but also the ability to degrade the extracellular matrix (ECM). For that reason, we performed a Transwell assay on Matrigel which resembles the ECM composition. The invasive capacities of HCT116 cells were determined using Cytoselect TM 24 Well Cell Invasion Assay (Basement Membrane Colorimetric Format) with coated Transwell chambers (8 μm pore size). Briefly, cells were resuspended with serum-free medium and treated with corresponding inhibitors (migrastatin 100 μM and, imipramine 20 μM). Cells (9.5×10^4) were seeded into the upper chamber, and in the lower chamber 500 μL of DMEM containing 10% FBS were added. After 30 hours of incubation, cells that remained on the upper chamber were scraped away with a cotton swab, and cells that migrated to the bottom of the filter were stained with the cell stain solution. The number of invaded cells was photographed under an inverted phase contrast microscope and quantified D.O.D by a spectrophotometer at λ=560 nm. Also we analyzed the invasive cells using the Image J software. […] A) Invasiveness of cells after treatment with different drugs. Pictures were taken under an inverted phase contrast microscope. The magnification was ×200 and scale bars=50 μm. B) Quantification of the invasive cells D.O. by a spectrophotometer at A=560 nm. […]

[6] = test system: HCT-116 colorectal cell line; experiment: Myoma organotypic invasion model; format: cell-based, human; settings: HCT-116, 14 days, compared to control
Description: To improve the reliability of the experimental model compared to the real tumor microenvironment, cancer cell invasion was assessed in the myoma organotypic cultures and performed according to the previously published myoma model (Åström, P., Heljasvaara, R., Nyberg, P., Al-Samadi, A., & Salo, 2018). Briefly, uterine leiomyoma tissues were obtained from routine surgery after informed consent of the donors and their use approved by The Ethics Committee of the Oulu University Hospital. The myoma tissue was sliced into 5 mm and disks were made with an 8-mm biopsy punch (Kai Industries Co., Gifu, Japan). Myoma disks were pre-incubated in 100 μM MGS, 10 μM and 20 μM imipramine or 0.1% DMSO-DMEM treatments at +4° C. for 48 h. The myoma disks were placed into Transwell inserts (diameter 6.5 mm; Corning Incorporated, Corning, NY) and 700,000 cells in 50 μl of media were added on top of each myoma disk. The cells were allowed to attach overnight and the myoma disks were transferred onto uncoated nylon disks resting on curved steel grids in 12-well plates with 12 well plates with 1 ml of media plus migrastatin and imipramine in each well. The cancer cells were left to invade the myoma disks for 14 days, while changing the treatment media every 3 days. Subsequently the myoma discs were fixed with 4% neutral buffered formalin at room temperature for 24 h, and processed for histology. […]

[7] = test system: colorectal cancer cell lines (DLD-1 and HCT-116) injected in zebra fish; experiment: Zebra fish larvae invasion model (xenograft); format: in vivo; settings: DLD-1 and HCT-116 cells treated and injected in larvae
Description: Finally, in order to find out whether the anti-invasive properties of imipramine could be extrapolable to an animal system, the well-established zebra fish larvae invasion model was used. A xenograft assay was carried out by stained with fluorescent CM-Dil (Vibrant, Invitrogen) two colorectal cancer cell lines (DLD-1 and HCT-116) and injected in zebra fish. The result obtained is referred to the percentage of cell invasion.
Injection and migration of different colorectal cancer cell lines in zebra fish model (A). Two colorectal cancer cell lines (DLD-1 and HCT-166) were treated with migrastatin and imipramine and injected in zebra fish larvae.

Question: COc1cccc(-c2cc(=O)c3ccccc3o2)c1N [PD98059] was tested. Which filopodia lamellipodium formation (HCT116 cell line) did it give?
Answer: The filopodia lamellipodium formation was “absent”.

Question: For CN(C)CCCN1c2ccccc2CCc2ccccc21 [imipramine, 3-(10,11-dihydro-5H-dibenzo[b,f]azepin-5-yl)-N,N-dimethylpropan-1-amine], which “Tm, FAM” value (fascin1 [1]; 1 mM compound, 2 μM fascin1, FAM filter) is on record?
Answer: The value was 58.3 ± 0.6 °C.

Question: What about the ΔTm at 1000 µM (fascin1 [1]; 1 mM compound, 2 μM fascin1, FAM filter, read-out: ΔTm, FAM) of the same compound?
Answer: Its ΔTm at 1000 µM is 2.7 ± 1.1 °C.

Question: What about the “Tm, HEX” value (fascin1 [1]; 1 mM compound, 2 μM fascin1, HEX filter) of the same compound?
Answer: Its value is 58.0 ± 0.0 °C.

Question: And the ΔTm at 1000 µM (fascin1 [1]; 1 mM compound, 2 μM fascin1, HEX filter, read-out: ΔTm, HEX)?
Answer: Its ΔTm at 1000 µM is 2 °C.

Question: What about the “Tm, TRed” value (fascin1 [1]; 1 mM compound, 2 μM fascin1, T-Red filter) of the same compound?
Answer: The value was 58.0 ± 0.0 °C.

Question: What about the ΔTm at 1000 µM (fascin1 [1]; 1 mM compound, 2 μM fascin1, T-Red filter, read-out: ΔTm, TRed) of the same compound?
Answer: The ΔTm at 1000 µM was 1.8 ± 0.6 °C.

Question: What about the “increase in Tm” value (fascin1 [1]; text summary over filters) of the same compound?
Answer: The value was “about 2 °C”.

Question: And the Kd (fascin1 [2])?
Answer: Its Kd is 390 µM.

Question: What about the “Migration (%)” value [3] of the same compound?
Answer: The value was 23.21%.

Question: And the “inhibition of migration” value ([3]; DLD-1, 20 μM, p<0.05)?
Answer: The value was “remarkable inhibition of migration”.

Question: What about the “inhibition of migration” value ([4]; 20 μM, p<0.05) of the same compound?
Answer: Its value is “remarkable inhibition of migration”.

Question: And the “Migration (%)” value [4]?
Answer: The value was 77.52%.

Question: And the “inhibition of migration” value ([5]; 20 μM, p<0.05)?
Answer: The value was “remarkable inhibition of migration”.

Question: And the “Migration (%)” value [5]?
Answer: The value was 43.25%.

Question: What about the filopodia lamellipodium formation (HCT116 cell line) of the same compound?
Answer: Its filopodia lamellipodium formation is “absent”.

Question: And the Lamellipodia protrusion number (HCT116 cell line)?
Answer: The Lamellipodia protrusion number was “significantly lower”.

Question: What about the “HCT-116 cell invasive ability (transwell)” value (HCT116 cells) of the same compound?
Answer: The value was “inhibit tumor cell migration”.

Question: What about the area of invasion [6] of the same compound?
Answer: Its area of invasion is “inhibits”.

Question: What about the depth of invasion [6] of the same compound?
Answer: Its depth of invasion is “inhibits”.

Question: And the “cell invasion in zebra fish larvae” value [7]?
Answer: The value was “diminishing cell invasion is evident”.

Question: Which “Migration (%)” value [3] does the source give for CO[C@H]1/C=C/CC/C=C/C(=O)O[C@H]([C@H](C)C(=O)CCCC2CC(=O)NC(=O)C2)/C(C)=C\[C@@H](C)[C@@H]1O [migrastatin] here?
Answer: The value was 67.91%.

Question: What about the “Migration (%)” value [4] of the same compound?
Answer: Its value is 70.34%.

Question: What about the “Migration (%)” value [5] of the same compound?
Answer: Its value is 44.59%.

Question: What about the filopodia lamellipodium formation (HCT116 cell line) of the same compound?
Answer: The filopodia lamellipodium formation was “absent”.

Question: What about the Lamellipodia protrusion number (HCT116 cell line) of the same compound?
Answer: Its Lamellipodia protrusion number is “significantly lower”.

Question: What about the “HCT-116 cell invasive ability (transwell)” value (HCT116 cells) of the same compound?
Answer: Its value is “inhibit tumor cell migration”.

Question: How did the filopodia lamellipodium formation (HCT116 cell line) turn out when “EGF: Epidermal Growth Factor (migration stimulator)” was run?
Answer: Its filopodia lamellipodium formation is “prominent filopodia lamellipodium formation”.
